Experimental data: patent publication US8906866B2, “Antibiotic compositions for the treatment of gram negative infections” (priority 2010, dated 2014)
Where a SMILES comes first, the peptide text is derived from it. Bridges are numbered along the chain shown (N, C = ends). [ ]: non-standard residue; d: D form. The star is where a group is joined. ξ: configuration not given here. Octanoyl(6-Me) = CCC(C)CCCCC(=O)*; Thr(3ξ) = CC(O)[C@H](N)C(=O)O; Dab = NCC[C@H](N)C(=O)O; ξDab = NCCC(N)C(=O)O

Tests used:
E. coli 1527 = assay: MIC against the primary screening panel (broth microdilution); assay type: cell-based, Escherichia coli; design: key: A: a MIC value measurement that is the same as that observed for polymyxin B; a MIC value measured that is lower than the comparable value observed for polymxin B; a MIC value measured that is higher than the comparable value observed for polymyxin B; settings: relative to polymyxin B
Description: (§1) Antibacterial potency can be assessed by broth microdilution according to CLSI guidelines, plates can be incubated at 37° C., and aeration (rotation at 200 rpm) can be employed. In some assays, surfactant (Survanta, Abbott Laboratories) can be added to give a final concentration of 1, 10 and 40% in caMHB. Native polymyxin A, polymyxin B and the comparator compound of Formula II (polymyxin B decapeptide with an o-chlorophenyl urea tail) were included for comparison.

K. pneumoniae 933 = assay: as above; assay type: cell-based, Klebsiella pneumoniae; design: key: A: a MIC value measurement that is the same as that observed for polymyxin B; a MIC value measured that is lower than the comparable value observed for polymxin B; a MIC value measured that is higher than the comparable value observed for polymyxin B; settings: relative to polymyxin B
Description: as §1

P. aeruginosa 44 [1] = assay: as above; assay type: cell-based, Pseudomonas aeruginosa; design: key: A: a MIC value measurement that is the same as that observed for polymyxin B; a MIC value measured that is lower than the comparable value observed for polymxin B; a MIC value measured that is higher than the comparable value observed for polymyxin B; settings: relative to polymyxin B
Description: as §1

A. baumannii 1570 = assay: as above; assay type: cell-based, Acinetobacter baumannii; design: key: A: a MIC value measurement that is the same as that observed for polymyxin B; a MIC value measured that is lower than the comparable value observed for polymxin B; a MIC value measured that is higher than the comparable value observed for polymyxin B; settings: relative to polymyxin B
Description: as §1

E. coli [2] = assay: MIC50/90 against small panels (n = 35); assay type: cell-based, Escherichia coli; design: key: A: a MIC value measurement that is the same as that observed for polymyxin B; a MIC value measured that is lower than the comparable value observed for polymxin B; a MIC value measured that is higher than the comparable value observed for polymyxin B; settings: small panel n = 35, relative to polymyxin B
Description: as §1

K. pneumoniae = assay: MIC50/90 against small panels (n = 35); assay type: cell-based, Klebsiella pneumoniae; design: key: A: a MIC value measurement that is the same as that observed for polymyxin B; a MIC value measured that is lower than the comparable value observed for polymxin B; a MIC value measured that is higher than the comparable value observed for polymyxin B; settings: small panel n = 35, relative to polymyxin B
Description: as §1

P. aeruginosa = assay: MIC50/90 against small panels (n = 35); assay type: cell-based, Pseudomonas aeruginosa; design: key: A: a MIC value measurement that is the same as that observed for polymyxin B; a MIC value measured that is lower than the comparable value observed for polymxin B; a MIC value measured that is higher than the comparable value observed for polymyxin B; settings: small panel n = 35, relative to polymyxin B
Description: as §1

A. baumannii = assay: MIC50/90 against small panels (n = 35); assay type: cell-based, Acinetobacter baumannii; design: key: A: a MIC value measurement that is the same as that observed for polymyxin B; a MIC value measured that is lower than the comparable value observed for polymxin B; a MIC value measured that is higher than the comparable value observed for polymyxin B; settings: small panel n = 35, relative to polymyxin B
Description: as §1

P. aeruginosa #44 [3] = assay: MICs for P. aeruginosa #44 in the presence of surfactant; assay type: cell-based, Pseudomonas aeruginosa; design: key: A: a MIC value measurement that is the same as that observed for polymyxin B; a MIC value measured that is lower than the comparable value observed for polymxin B; a MIC value measured that is higher than the comparable value observed for polymyxin B
Description: as §1

P. aeru = assay: MIC50 and MIC90, CLSI broth microdilution, panel of Gram negative strains; assay type: cell-based, Pseudomonas aeruginosa; design: key: A: a measured MIC value equal to that of polymyxin B; a measured MIC value less than the corresponding MIC value measured for polymyxin B; a measured MIC value greater than the corresponding MIC value measured for polymyxin B; settings: relative to polymyxin B; some strains multi-drug resistant
Description: (§2) MIC testing can be performed according to Clinical and Laboratory Standards Institute (CLSI) M7-A7 (2006) broth microdilution methods. Unless otherwise indicated, MIC values are provided in units of micrograms per milliliter.
(§3) One day prior to testing, individual colonies were isolated by streaking onto rich, non-selective Tryptic Soy agar with 5% lysed sheeps blood (TSAB) with incubation at 35-37° C. for 18-24 hours.
(§4) Cultures were prepared by touching 3-5 colonies into 3 mL of cation-adjusted Mueller Hinton Broth (caMHB) in a 14-mL tube (caMHB was prepared and sterilized according to manufacturer's specifications).
(§5) OD600 of growing cultures was measured and adjusted to approximately 10^5 colony forming units per mL (CFU/mL) in caMHB for MIC inoculation (approximately OD600 0.001).
(§6) Diluted cultures were used to inoculate 50 μL per well in broth microdilution assays (final volume 100 μl per well; compounds were prepared in two-fold dilutions).
(§7) Plates were incubated 16-20 hours at 37° C., with shaking at 200 rpm.
(§8) OD600 was determined for all wells. Growth was defined as OD600>0.1. MICs were defined as the lowest concentration producing no visible turbidity (OD600<0.1).

E. coli [4] = assay: as above; assay type: cell-based, Escherichia coli; design: key: A: a measured MIC value equal to that of polymyxin B; a measured MIC value less than the corresponding MIC value measured for polymyxin B; a measured MIC value greater than the corresponding MIC value measured for polymyxin B; settings: relative to polymyxin B; some strains multi-drug resistant
Description: as §2, §3, §4, §5, §6, §7, §8

K. pneu = assay: as above; assay type: cell-based, Klebsiella pneumoniae; design: key: A: a measured MIC value equal to that of polymyxin B; a measured MIC value less than the corresponding MIC value measured for polymyxin B; a measured MIC value greater than the corresponding MIC value measured for polymyxin B; settings: relative to polymyxin B; some strains multi-drug resistant
Description: as §2, §3, §4, §5, §6, §7, §8

A. baum = assay: as above; assay type: cell-based, Acinetobacter baumannii; design: key: A: a measured MIC value equal to that of polymyxin B; a measured MIC value less than the corresponding MIC value measured for polymyxin B; a measured MIC value greater than the corresponding MIC value measured for polymyxin B; settings: relative to polymyxin B; some strains multi-drug resistant
Description: as §2, §3, §4, §5, §6, §7, §8

P. aeruginosa #44 [5] = assay: MIC against P. aeruginosa #44 in polystyrene plate; assay type: cell-based, Pseudomonas aeruginosa; settings: range of repeated tests
Description: P. aeruginosa #44 were grown in cation adjusted Mueller Hinton Broth (caMHB) (catalog#B12322; Fisher Scientific, Pittsburgh, Pa.) at 37° C. MIC testing was performed according to Clinical and Laboratory Standards Institute [CLSI, formerly National Committee for Clinical Laboratory Standards (NCCLS), Wayne, Pa.] guidelines for broth microdilution. […]

P. aeruginosa 44 [6] = assay: Neutropenic mouse lung infection model; assay type: in vivo; settings: for Lungs cleared within one log10 of limit of detection: 8 through 20 mg/kg dose levels; for ED−3log10: neutropenic mouse lung, P. aeruginosa 44, SC, BID×1 d, cfu 24 hours post-infection
Description: Compound of Formula (Ia) was tested in a murine thigh model. For the thigh model, female CD-1 mice were rendered neutropenic by IP injection on days −4 and −1 with 150 and 100 mg/kg cyclophosphamide, respectively. On day 0 mice were infected with 1×10^7 colony-forming units (cfu) of A. baumannii 1570 in one thigh muscle, and then administered compound SC in a dose ranging from 2 to 12 mg/kg at 1 and 6 hours post-infection.
The mouse lung model was run in the same manner as the thigh infection model, except that mice were infected IN with 1×10^7 cfu of P. aeruginosa 44 on day 0. Doses administered in the lung study ranged from 8 to 20 mg/kg. The ED−3log10 was based on cfu determination from the lung tissue 24 hours post-infection.

[7] = Acute toxicity testing in rats; assay type: in vivo, Sprague-Dawley rat; settings: 1 mg/kg i.v.
Description: One female Sprague-Dawley rat was administered a 1 mg/kg dose of the test Compound 5. Clinical observations were taken immediately following the administration of compound and at 0.5, 1, 2 and 4 hours post-dose.

[8] = test system: Gram negative bacterial strains; assay: Potency and spectrum against a panel of Gram negative bacterial strains; assay type: cell-based
Description: The potency and spectrum of Compound 5 was studied using a panel of Gram negative bacterial strains.
as §2

SMILES | MIC E. coli 1527 (E. coli 1527) | MIC K. pneumoniae 933 (K. pneumoniae 933) | MIC P. aeruginosa 44 (P. aeruginosa 44 [1]) | MIC A. baumannii 1570 (A. baumannii 1570) | E. coli MIC50 (E. coli [2]) | E. coli MIC90 (E. coli [2]) | K. pneumoniae MIC50 (K. pneumoniae) | K. pneumoniae MIC90 (K. pneumoniae) | P. aeruginosa MIC50 (P. aeruginosa) | P. aeruginosa MIC90 (P. aeruginosa) | A. baumannii MIC50 (A. baumannii) | A. baumannii MIC90 (A. baumannii) | P. aeru MIC 50 (P. aeru) | P. aeru MIC 90 (P. aeru) | E. coli MIC50 (E. coli [4]) | E. coli MIC90 (E. coli [4]) | K. pneu MIC 50 (K. pneu) | K. pneu MIC 90 (K. pneu) | A. baum MIC 50 (A. baum) | A. baum MIC 90 (A. baum) | also measured
CC(C)C[C@H]1NC(=O)[C@H](CCN)NC(=O)[C@@H](NC(=O)[C@@H](CCN)NC(=O)[C@@H](NC(=O)[C@H](CCN)NC(=O)[C@H]2C[C@@H]2c2ccccc2)C(C)O)CCNC(=O)[C@H](C(C)O)NC(=O)[C@H](CCN)NC(=O)[C@H](CCN)NC(=O)[C@H](C(C)O)NC1=O (single isomer, unassigned) [Compound 5] | A | C | C | C | C | A | C | C | A | C | C | C | A | C | C | A | C | C | C | C | MIC P. aeruginosa #44, 0% surfactant (P. aeruginosa #44 [3]; relative to polymyxin B): C; MIC P. aeruginosa #44, 10% surfactant (P. aeruginosa #44 [3]; relative to polymyxin B): B; MIC P. aeruginosa #44, 40% surfactant (P. aeruginosa #44 [3]; relative to polymyxin B): B; MIC against P. aeruginosa #44 In polystyrene plate (P. aeruginosa #44 [5]): 1-2 micrograms/ml; Lungs cleared within one log10 of limit of detection (P. aeruginosa 44 [6]): Lungs cleared within one log10 of limit of detection; ED−3log10 (P. aeruginosa 44 [6]): 6.35 mg/kg; time by which rat had no clinical signs ([7]; 1 female Sprague-Dawley rat): ≤ 1 h; Acute (anaphylactoid) observations ([7]; female Sprague-Dawley rat): anaphylactoid response was observed; activity against E. coli, K. pneumonia, P. Aeruginosa and A. baumanni isolates [8]: active; activity against multi-drug resistant strains [8]: active against multi-drug resistant strains
CCC(C)CCCCC(=O)N[C@@H](CCN)C(=O)N[C@H](C(=O)N[C@@H](CCN)C(=O)NC1CCNC(=O)[C@H](C(C)O)NC(=O)[C@H](CCN)NC(=O)C(CCN)NC(=O)[C@H](CC(C)C)NC(=O)[C@@H](Cc2ccccc2)NC(=O)[C@H](CCN)NC1=O)C(C)O (stereo partly drawn) [Polymyxin B] ({Octanoyl(6-Me)}-[Dab][Thr(3ξ)][Dab][ξDab][Dab][dF]L[ξDab][Dab][Thr(3ξ)]; lactam 4-C) | A | A | A | A | A | A | A | A | A | A | A | A | A | A | A | A | A | A | A | A | MIC P. aeruginosa #44, 0% surfactant (P. aeruginosa #44 [3]): 0.06 micrograms/ml; MIC P. aeruginosa #44, 10% surfactant (P. aeruginosa #44 [3]): 8 micrograms/ml; MIC P. aeruginosa #44, 40% surfactant (P. aeruginosa #44 [3]): >32 micrograms/ml; MIC against P. aeruginosa #44 In polystyrene plate (P. aeruginosa #44 [5]): 1-2 micrograms/ml; Lungs cleared within one log10 of limit of detection (P. aeruginosa 44 [6]): not observed; ED−3log10 (P. aeruginosa 44 [6]): > 20 mg/kg; ED−3log10 (P. aeruginosa 44 [6]; listed as PMB): 20.6 mg/kg
